Columns and labels:
[1] = test system: Aβ40 in conditioned medium of cells stably expressing Amyloid Precursor Protein (APP); experiment: In vitro BACE cell-based assay (Aβ40 in conditioned medium, sandwich ELISA); settings: Homo sapiens, HEK293, average IC50; read-out: HEK cell assay
How it was run: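 Conditioned medium from stably APP-expressing cells treated with compound dose series is assayed for Aβ40 by sandwich ELISA with time-resolved fluorescence detection. IC50 is calculated from percent inhibition of Aβ40 against compound concentration.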

[2] = target: Beta Secretase enzyme (BACE) (Homo sapiens, UniProt P56817); experiment: In vitro enzymatic BACE FRET (fluorescence resonance energy transfer) assay; type: biochemical; settings: average IC50, enzyme assay; read-out: BACE 1 FRET assay
How it was run: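 Cleavage of a 50 nM fluorophore/quencher peptide FRET substrate by BACE for 1 h in 0.05 M acetate pH 4.2, 10% DMSO, 100 uM genapol. Reaction stopped with Tris to neutral pH before fluorescence reading.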

Chain of Beta Secretase enzyme (BACE) (P56817 46-501, species assumed): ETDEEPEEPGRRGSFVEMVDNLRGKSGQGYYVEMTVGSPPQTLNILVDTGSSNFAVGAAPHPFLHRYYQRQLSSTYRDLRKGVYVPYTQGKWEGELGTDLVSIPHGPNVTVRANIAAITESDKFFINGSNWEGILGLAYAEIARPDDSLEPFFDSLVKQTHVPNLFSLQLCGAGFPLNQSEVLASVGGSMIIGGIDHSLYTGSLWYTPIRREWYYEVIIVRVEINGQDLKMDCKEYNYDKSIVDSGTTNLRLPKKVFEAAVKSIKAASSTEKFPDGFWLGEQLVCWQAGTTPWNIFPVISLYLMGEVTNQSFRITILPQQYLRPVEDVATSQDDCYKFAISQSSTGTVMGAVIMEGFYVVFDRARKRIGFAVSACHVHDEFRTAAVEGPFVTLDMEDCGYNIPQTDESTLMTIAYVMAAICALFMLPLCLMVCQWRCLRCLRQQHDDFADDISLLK

SMILES | IC50 [1] | IC50 [2]
CC#Cc1cncc(-c2ccc3c(c2)[C@@]2(CSC(N)=N2)c2cc(-c4cncc(C#CC)c4)cnc2O3)c1 [Example 730, (5S)-3,7-bis(5-(1-propyn-1-yl)-3-pyridinyl)spiro[chromeno[2,3-b]pyridine-5,4′-[1,3]thiazol]-2′-amine] | 171 nM | 1.8 nM
NC1=N[C@@]2(CO1)c1cc(-c3cccnc3F)ccc1Oc1c2cc(Br)nc1F [Example 734, (5S)-3-bromo-1-fluoro-7-(2-fluoro-3-pyridinyl)spiro[chromeno[2,3-c]pyridine-5,4′-[1,3]oxazol]-2′-amine] | 2260 nM | 7.8 nM
NC1=NC2(CO1)c1cc(-c3cccnc3F)ccc1Oc1c2cc(C#Cc2cccnc2)nc1F (centres unmarked) [Example 735, 1-fluoro-7-(2-fluoro-3-pyridinyl)-3-(3-pyridinylethynyl)spiro[chromeno[2,3-c]pyridine-5,4′-[1,3]oxazol]-2′-amine] | 131 nM | 0.9 nM
CC1(C#Cc2cc3c(c(F)n2)Oc2ccc(-c4cccnc4F)cc2[C@]32COC(N)=N2)COC1 [Example 737, (5R)-1-fluoro-7-(2-fluoro-3-pyridinyl)-3-((3-methyl-3-oxetanyl)ethynyl)spiro[chromeno[2,3-c]pyridine-5,4′-[1,3]oxazol]-2′-amine] | 4330 nM | 116 nM
CC1(C#Cc2cc3c(c(F)n2)Oc2ccc(-c4cccnc4F)cc2[C@@]32COC(N)=N2)COC1 [Example 738, (5S)-1-fluoro-7-(2-fluoro-3-pyridinyl)-3-((3-methyl-3-oxetanyl)ethynyl)spiro[chromeno[2,3-c]pyridine-5,4′-[1,3]oxazol]-2′-amine] | 10 nM | 0.6 nM
CC#Cc1cncc(-c2ccc3c(c2)[C@@]2(COC(N)=N2)c2cc(-c4ccncc4)nc(F)c2O3)c1 [Example 739, (5S)-1-fluoro-7-(5-(1-propyn-1-yl)-3-pyridinyl)-3-(4-pyridinyl)spiro[chromeno[2,3-c]pyridine-5,4′-[1,3]oxazol]-2′-amine] | 5 nM | 0.5 nM
CC#Cc1cncc(-c2ccc3c(c2)[C@@]2(COC(N)=N2)c2cc(-c4ccnc(C)c4)nc(F)c2O3)c1 [Example 740, (5S)-1-fluoro-3-(2-methyl-4-pyridinyl)-7-(5-(1-propyn-1-yl)-3-pyridinyl)spiro[chromeno[2,3-c]pyridine-5,4′-[1,3]oxazol]-2′-amine] | 8 nM | 0.8 nM
NC1=N[C@]2(CO1)c1cc(-c3cccnc3F)ccc1Oc1c2cc(C#Cc2cccnc2)nc1F [Example 747, (5R)-1-fluoro-7-(2-fluoro-3-pyridinyl)-3-(3-pyridinylethynyl)spiro[chromeno[2,3-c]pyridine-5,4′-[1,3]oxazol]-2′-amine] | ≥ 10000 nM | 1120 nM
CC#Cc1cncc(-c2ccc3c(c2)C2(COC(N)=N2)c2cc(C4CCOCC4)nc(F)c2O3)c1 (centres unmarked) [Example 750, 1-fluoro-7-(5-(1-propyn-1-yl)-3-pyridinyl)-3-(tetrahydro-2H-pyran-4-yl)spiro[chromeno[2,3-c]pyridine-5,4′-[1,3]oxazol]-2′-amine] | 4 nM | 0.7 nM
NC1=NC2(CO1)c1cc(-c3cccnc3)ccc1Oc1c2cc(C2CCOCC2)nc1F (centres unmarked) [Example 752, 1-fluoro-7-(3-pyridinyl)-3-(tetrahydro-2H-pyran-4-yl)spiro[chromeno[2,3-c]pyridine-5,4′-[1,3]oxazol]-2′-amine] | 77 nM | 5.6 nM
N#Cc1cccc(-c2ccc3c(c2)[C@@]2(CSC(N)=N2)c2cc(C4=CCOCC4)cnc2O3)c1F [Example 763, 3-((5S)-2′-amino-3-(3,6-dihydro-2H-pyran-4-yl)spiro[chromeno[2,3-b]pyridine-5,4′-[1,3]thiazol]-7-yl)-2-fluorobenzonitrile] | 17 nM | 2.1 nM
N#Cc1cc(-c2ccc3c(c2)[C@@]2(CSC(N)=N2)c2cc(C4=CCOCC4)cnc2O3)ccc1F [Example 764, 5-((5S)-2′-amino-3-(3,6-dihydro-2H-pyran-4-yl)spiro[chromeno[2,3-b]pyridine-5,4′-[1,3]thiazol]-7-yl)-2-fluorobenzonitrile] | 6 nM | 0.6 nM

Other lines, results leading:

IC50 [1] | IC50 [2] | SMILES
43 nM | 6.8 nM | NC1=N[C@@]2(CS1)c1cc(-c3cccnc3F)ccc1Oc1ncc(C3CCOCC3)cc12 [Example 729, (5S)-7-(2-fluoro-3-pyridinyl)-3-(tetrahydro-2H-pyran-4-yl)spiro[chromeno[2,3-b]pyridine-5,4′-[1,3]thiazol]-2′-amine]
3 nM | 2 nM | NC1=N[C@@]2(CO1)c1cc(-c3cccnc3F)ccc1Oc1ncc(-c3cccnc3F)cc12 [Example 732, (5S)-3,7-bis(2-fluoro-3-pyridinyl)spiro[chromeno[2,3-b]pyridine-5,4′-[1,3]oxazol]-2′-amine]
18 nM | 1.1 nM | CC1(C#Cc2cc3c(c(F)n2)Oc2ccc(-c4cccnc4F)cc2C32COC(N)=N2)COC1 (centres unmarked) [Example 733, 1-fluoro-7-(2-fluoro-3-pyridinyl)-3-((3-methyl-3-oxetanyl)ethynyl)spiro[chromeno[2,3-c]pyridine-5,4′-[1,3]oxazol]-2′-amine]
≥ 10000 nM | 2090 nM | NC1=N[C@]2(CO1)c1cc(-c3cccnc3F)ccc1Oc1c2cc(Br)nc1F [Example 736, (5R)-3-bromo-1-fluoro-7-(2-fluoro-3-pyridinyl)spiro[chromeno[2,3-c]pyridine-5,4′-[1,3]oxazol]-2′-amine]
4 nM | 0.4 nM | CC#Cc1cncc(-c2ccc3c(c2)[C@@]2(COC(N)=N2)c2cc(-c4ccc(C)nc4)nc(F)c2O3)c1 [Example 741, (5S)-1-fluoro-3-(6-methyl-3-pyridinyl)-7-(5-(1-propyn-1-yl)-3-pyridinyl)spiro[chromeno[2,3-c]pyridine-5,4′-[1,3]oxazol]-2′-amine]
8 nM | 0.4 nM | N#Cc1cccc(-c2ccc3c(c2)[C@@]2(COC(N)=N2)c2cc(C4=CCCOC4)nc(F)c2O3)c1 [Example 742, 3-((5S)-2′-amino-3-(5,6-dihydro-2H-pyran-3-yl)-1-fluorospiro[chromeno[2,3-c]pyridine-5,4′-[1,3]oxazol]-7-yl)benzonitrile]
6 nM | 0.4 nM | N#Cc1cccc(-c2ccc3c(c2)[C@@]2(COC(N)=N2)c2cc(C4=CCOCC4)nc(F)c2O3)c1 [Example 743, 3-((5S)-2′-amino-3-(3,6-dihydro-2H-pyran-4-yl)-1-fluorospiro[chromeno[2,3-c]pyridine-5,4′-[1,3]oxazol]-7-yl)benzonitrile]
12 nM | 0.8 nM | Cc1cc(-c2cc3c(c(F)n2)Oc2ccc(-c4cccnc4F)cc2[C@@]32COC(N)=N2)ccn1 [Example 744, (5S)-1-fluoro-7-(2-fluoro-3-pyridinyl)-3-(2-methyl-4-pyridinyl)spiro[chromeno[2,3-c]pyridine-5,4′-[1,3]oxazol]-2′-amine]
74 nM | 0.4 nM | NC1=N[C@@]2(CO1)c1cc(-c3cccnc3F)ccc1Oc1c2cc(C#Cc2cccnc2)nc1F [Example 748, (5S)-1-fluoro-7-(2-fluoro-3-pyridinyl)-3-(3-pyridinylethynyl)spiro[chromeno[2,3-c]pyridine-5,4′-[1,3]oxazol]-2′-amine]
42 nM | 3.2 nM | N#Cc1cccc(-c2ccc3c(c2)C2(COC(N)=N2)c2cc(C4CCOCC4)nc(F)c2O3)c1 (centres unmarked) [Example 751, 3-(2′-amino-1-fluoro-3-(tetrahydro-2H-pyran-4-yl)spiro[chromeno[2,3-c]pyridine-5,4′-[1,3]oxazol]-7-yl)benzonitrile]
4 nM | 0.7 nM | CC#Cc1cncc(-c2ccc3c(c2)[C@@]2(COC(N)=N2)c2cc(C4CCOCC4)nc(F)c2O3)c1 [Example 753, (5S)-1-fluoro-7-(5-(1-propyn-1-yl)-3-pyridinyl)-3-(tetrahydro-2H-pyran-4-yl)spiro[chromeno[2,3-c]pyridine-5,4′-[1,3]oxazol]-2′-amine]
691 nM | 156 nM | CC#Cc1cncc(-c2ccc3c(c2)[C@]2(COC(N)=N2)c2cc(C4CCOCC4)nc(F)c2O3)c1 [Example 754, (5R)-1-fluoro-7-(5-(1-propyn-1-yl)-3-pyridinyl)-3-(tetrahydro-2H-pyran-4-yl)spiro[chromeno[2,3-c]pyridine-5,4′-[1,3]oxazol]-2′-amine]
2 nM | 0.4 nM | CC#Cc1cncc(-c2ccc3c(c2)[C@@]2(COC(N)=N2)c2cc(C4=CCCOC4)nc(F)c2O3)c1 [Example 758, (5S)-3-(5,6-dihydro-2H-pyran-3-yl)-1-fluoro-7-(5-(1-propyn-1-yl)-3-pyridinyl)spiro[chromeno[2,3-c]pyridine-5,4′-[1,3]oxazol]-2′-amine]
2 nM | 0.3 nM | CC#Cc1cncc(-c2ccc3c(c2)[C@@]2(COC(N)=N2)c2cc(C4=CCOCC4)nc(F)c2O3)c1 [Example 760, (5S)-3-(3,6-dihydro-2H-pyran-4-yl)-1-fluoro-7-(5-(1-propyn-1-yl)-3-pyridinyl)spiro[chromeno[2,3-c]pyridine-5,4′-[1,3]oxazol]-2′-amine]
185 nM | 0.9 nM | CC#Cc1cncc(-c2ccc3c(c2)[C@@]2(COC(N)=N2)c2cc(Cl)nc(F)c2O3)c1 [Example 761, (5S)-3-chloro-1-fluoro-7-(5-(1-propyn-1-yl)-3-pyridinyl)spiro[chromeno[2,3-c]pyridine-5,4′-[1,3]oxazol]-2′-amine]
8 nM | 1 nM | NC1=N[C@@]2(CS1)c1cc(-c3cccnc3F)ccc1Oc1ncc(-c3cccnc3)cc12 [Example 765, (5S)-7-(2-fluoro-3-pyridinyl)-3-(3-pyridinyl)spiro[chromeno[2,3-b]pyridine-5,4′-[1,3]thiazol]-2′-amine]

From patent US8883782B2, “Spiro-tetracyclic ring compounds as beta-secretase modulators and methods of use” (Amgen Inc., priority 2010, dated 2014)
